Data: patent US5278176A (Abbott Laboratories, priority 1992, dated 1994)
Counter-ions that a name gives are not always drawn.

Legend:
insecticidal activity = details: U.S. Pat. No. 4,093,620; cited from earlier work
[1] = target: Neuronal Nicotinic Receptors; assay: Binding of [^3 H]-methylcarbamylcholine ([^3 H]-MCC) to neuronal nicotinic receptors (Table 1); set-up: species or system rat
Protocol: Protocols for Determination of Nicotinic Receptor Binding Potencies of Agonists
Binding of [^3 H]-methylcarbamylcholine ([^3 H]-MCC) to nicotinic receptor was accomplished using crude synaptic membrane preparations from whole rat brain (Snyder and Enna, Brain Research, 1975, 100:81). Washed membranes were stored at -80° C. prior to use. Frozen aliquots were slowly thawed and resuspended in 20 volumes of buffer (containing: 120 mM NaCl, 5 mM KCl, 2 mM MgCl2, 2 mM CaCl2 and 50 mM Tris-Cl, pH 7.4 @4° C.). After centrifuging at 20,000 g for 15 minutes, the pellets were resuspended in 30 volumes of buffer. Homogenate (containing 125-150 μg protein) was added to triplicate tubes containing concentrations of test compound and [^3 H]-MCC (3 nM) in a final volume of 500 μL. Samples were incubated for 60 minutes at 4° C., then rapidly filtered through Whatman GF/B filters presoaked in 0.5% polyethylimine using 3×4 mL of ice-cold buffer. The filters are counted in 4 mL of Ecolume® (ICN). […] Alternately, data were expressed as a percentage of the total specific binding.

[2] = test system: anxiolytic activity (time in open arms); assay: Mouse Elevated Plus-Maze Studies; format: in vivo, CD1 mice
Protocol: FIG. 4 is a graphical representation of the effects of the compound of Example 4 (0.003-0.3 mg/kg) on the performance of CD1 mice in the Elevated-Plus Maze Study expressed as median time (seconds) spent on the open arms of the maze.
The mouse elevated plus-maze is a conflict test that probes anxiolytic activity of test compounds (Lister, Psychopharmacology, 1987, 92:180). It is based on the fact that exposure of mice to an elevated open arm leads to an avoidance response considerably stronger than that evoked by exposure to an enclosed arm.
The apparatus required to perform this test is made of plywood and consists of two open arms (17×8 cm) and two enclosed arms (17×8×15 cm) extending from a central platform (8×8 cm). It is mounted on a plywood base rising 39 cm above the floor. Mice are released on the central platform and the time spent in the open and enclosed arms is recorded during a 5 minute test period.
The compound of Example 4 (0.62-6.2 μmol/kg, IP) was administered to CD1 mice 15 minutes before the test.

[3] = test system: retention of the avoidance response; assay: Inhibitory Avoidance Studies; format: in vivo, CD1 mice; details: 0.06-6.2 μmol/kg IP, 15 min before training; FIG. 2
Protocol: FIG. 2 is a graphical representation (bar graph) of the effects of the compound of Example 8 (0.001-1.0 mg/kg) on the performance of CD1 mice in Inhibitory Avoidance Studies expressed as median step-through latency time (seconds).
The inhibitory (or sometimes called passive) avoidance (IA) test is a well accepted animal model of learning/memory used to assess the activity of novel muscarinic agonists to enhance cognitive function (Wanibuchi et al., Eur. J. Pharmacol., 1990, 187:479). Animals are placed in the illuminated (12×14×11 cm) portion of a two-chambered box, from which they enter through a guillotine door to the larger (24×13.5×12 cm) dark compartment of the box. Entry to the dark compartment is accompanied by a mild (0.5 mA), brief (2 seconds) footshock. Initial latencies to cross are recorded, with an imposed 60 second ceiling. Following a 72 hour retention interval, animals are returned to the illuminated chamber, and latency to return to the dark compartment is again recorded, with a ceiling of 180 seconds. No footshock is administered on the test day.
Twelve animals were used in each group.

[4] = test system: cholinergic receptors located in the heart; details: cited from earlier work
cortical receptors = details: cited from earlier work
[5] = background statement; cited from earlier work
parietotemporal cortex = parietotemporal cortex of humans; cited from earlier work
withdrawal symptoms = details: double-blind studies; cited from earlier work
[6] = test system: anger, irritability, frustration, tension, anxiety; details: cited from earlier work
heart = details: in vivo; cited from earlier work
cognitive function = details: acutely and chronically administered; preserved in aged animals; cited from earlier work
receptors = details: chronic nicotine administration; cited from earlier work
[7] = [^3 H]-MCC (3 nM), whole rat brain membranes, 60 min at 4° C., Cheng-Prusoff from IC50

CN1C(C#N)CCC1c1cccnc1 (stereo not drawn) [5'-cyanonicotine]
insecticidal activity (insecticidal activity): insecticidal activity

CN1C[C@H](O)CC1c1cccnc1 (stereo partly drawn) [Example 1, 4'-(R)-Hydroxynicotine oxalate]
Ki [1, 7]: 0.029 µM

CO[C@@H]1CC(c2cccnc2)N(C)C1 (stereo partly drawn) [Example 2, 4'-(R)-Methoxynicotine oxalate]
Ki [1, 7]: 0.025 µM

CN1C[C@@H](F)CC1c1cccnc1 (stereo partly drawn) [Example 3, 4'-(S)-Fluoronicotine dioxalate]
Ki [1, 7]: 0.035 µM

C[C@@H]1CC(c2cccnc2)N(C)C1.O=C(O)C(=O)O.O=C(O)C(=O)O (stereo partly drawn) [Example 4, 4'-(R)-Methylnicotine dioxalate]
anxiolytic response (time in open arms) ([2]; 0.62-6.2 μmol/kg IP, 15 min before test, p<0.05 vs control, FIG. 4): clear anxiolytic response
anxiolytic effect compared with (-)nicotine ([2]; FIG. 4): anxiolytic effect similar to (-)nicotine
Ki [1, 7]: 0.0042 µM

CN1C[C@@H](Cc2ccccc2)CC1c1cccnc1 (stereo partly drawn) [Example 5, 4'-(S)-Benzylnicotine dioxalate]
Ki [1, 7]: 0.135 µM

CC[C@H]1CC(c2cccnc2)N(C)C1 (stereo partly drawn) [Example 6, 4'-(S)-Ethylnicotine dioxalate]
Ki [1, 7]: 0.053 µM

CN1C[C@H](CF)CC1c1cccnc1.O=C(O)C(=O)O (stereo partly drawn) [Example 8, 4'-(R)-Fluoromethylnicotine oxalate]
facilitation of retention of the avoidance response [3]: significantly facilitated the retention of the avoidance response
Ki [1, 7]: 0.01 µM

CN1CCC(CF)C1c1cccnc1 (stereo not drawn) [Example 9, 3'-Fluoromethylnicotine oxalate]
Ki [1, 7]: 0.106 µM

CC1CCN(C)C1c1cccnc1 (stereo not drawn) [Example 10, 3'-methylnicotine dioxalate]
Ki [1, 7]: 0.023 µM

CN1C[C@@H](C#N)CC1c1cccnc1 (stereo partly drawn) [Example 11, 4'-(S)-Cyanonicotine dioxalate]
Ki [1, 7]: 0.007 µM

CC(=O)O[C@@H]1CC(c2cccnc2)N(C)C1 (stereo partly drawn) [Example 12, 4'-(R)-Acetyloxynicotine oxalate]
Ki [1, 7]: 0.162 µM

CC1CN(C)C(c2cccnc2)C1C (stereo not drawn) [Example 13, 3',4'-Dimethylnicotine oxalate]
Ki [1, 7]: 0.105 µM

CN1C[C@@H](CC#N)CC1c1cccnc1 (stereo partly drawn) [Example 16, 4'-(R)-Cyanomethylnicotine oxalate]
Ki [1, 7]: 0.053 µM

CN1C[C@H](OS(C)(=O)=O)CC1c1cccnc1 (stereo partly drawn) [Example 19, 4'-(R)-Methanesulfonyoxynicotine oxalate]
Ki [1, 7]: 0.276 µM

CCN1C(=O)CC2(CCN(C)CC2)C1=O [RS-86]
agonist efficacy at cardiac receptors [4]: full agonist at cardiac receptors
agonist efficacy at cortical receptors (cortical receptors): only a partial agonist at cortical receptors
potency and selectivity [5]: poor potency and lack of selectivity

COC(=O)C1=CCCN(C)C1 [arecoline]
Ki ([1]; arecoline comparator in text, unit inferred): 0.059 µM
pharmacokinetics [5]: unfavorable pharmacokinetics

C[N+](C)(C)CCOC(N)=O [carbachol]
CNS penetration [5]: poor CNS penetration

CNC1(C)C2CCC(C2)C1(C)C (stereo not drawn) [mecamylamine]
resting cortical perfusion (parietotemporal cortex): reduces resting cortical perfusion

CN1CCC[C@H]1c1cccnc1 [nicotine]
suppression/prevention of withdrawal signs and symptoms vs placebo (withdrawal symptoms): far superior to placebo in suppressing or preventing the appearance of many of the signs and symptoms of withdrawal
time spent in open arms of the maze ([2]; (-)nicotine 0.1 and 0.3 mmol/kg, p<0.05 vs saline, 5 min test): significant increase in the time spent by the mice in the open arms of the maze
anxiolytic properties ([6]; Pomerleau et al. 1984): anxiolytic properties
effect on anger, irritability, frustration, tension ([6]; U.S. Pat. No. 3,879,794, without general response depression, drowsiness or sedation): effective in reducing anger, irritability, frustration and feelings of tension
Ki [1, 7]: 0.001 µM
stimulant effects on the heart (heart): increasing cardiac workload and oxygen demand
cognitive function (cognitive function): enhances cognitive function in rats
effect on receptor affinity (receptors): without affecting affinity
up-regulation of number of receptors (receptors): 50-100%
oral bioavailability [5]: poor oral bioavailability
pharmacokinetics [5]: unfavorable pharmacokinetics
